Source: patent EP0926242A1, “GLIOTOXIN DERIVATIVES AND ANTICANCER AGENT COMPRISING THE SAME” (priority 1996, dated 1998)

Legend:
[1] = Body weight in the COLON-26 evaluation in vivo (Example 1); set-up: species or system CDFI mice; conditions: day 21, COLON-26 mice, control 24.7 g
Method: (§1) CDFI mice (female: 4 weeks old) were bought, and colon-26 subcultured in vivo in the subcutaneous tissue was taken out. The colon-26 was minced in a Petridish, and transplanted into the sulcutaneous tissue of CDFI mice in an amount of 10 mg/mouse by a trucker. The transplanted day was assigned day 0, and the size of the tumor and body weight were measured on day 7 and divided into groups by n=4. The size of tumor was calculated as tumor weight by the following formula. (Tumor Weight (mg) = Tumor Volume (mm)^3 =1/2 × Major Axis (mm) × Minor Axis (mm))^2 [formula]
(§2) Administration was carried out from day 7 according to the following schedule. Dose was 0.2 mL/mouse, and injected into abdominal cavity. Acetylgliotoxin was dissolved in dimethyl sulfoxide (DMSO) in a concentration of 100 mg/mL, and adjusted to an object concentration (0.5 mg/kg, 1 mg/kg, 10 mg/kg, 20 mg/kg) by 5% Tween 80 (saline solution). In the evaluation of […], 1 mg/kg, injection was carried out every day for 5 days, in the case of 10 mg/kg, injected twice on day 7 and day 8, and in the case of 20 mg/kg, injected once on day 7.

[2] = tested on: human carcinoma of the colon HCT-116; test: Evaluation in vivo using human carcinoma of the colon HCT-116 (Example 1); set-up: species or system Balb/c nu/nu mice; conditions: for I. R. (%): day 21, Balb/c nu/nu mice
Method: (§3) Balb/c nu/nu mice (female: 5 weeks old) were bought, and HCT- 116 subcultured in vivo in the subcutaneous tissue was taken out. The HCT-116 was minced in a Petridish, and transplanted into the sulcutaneous tissue of […] mice in an amount of 30 mg/mouse by a trucker. The transplanted day was assigned day 0, and the size of the tumor and body weight were measured on day 7 and divided into groups by n=2.
(§4) Acetylgliotoxin was dissolved in dimethyl sulfoxide (DMSO) in a concentration of 100 mg/mL, and adjusted to an object concentration (0.5 mg/kg, 1 mg/kg, 10 mg/kg, 20 mg/kg) by 5 % Tween 80 (saline solution). In the evaluation of 0.5, 1 mg/kg, injection was carried out every day for 5 days, in the case of 10 mg/kg, injected twice on day 7 and day8, and in the case of 20 mg/kg, injected once on day 7.
The anticancer effect was evaluated by the inhibition rate of tumor cell multiplication (IR calculated from the weight of tumor. IR was obtained by the following formula.

[3] = Solubility of the isolated active component; assay type: physicochemical
Method: After cultivation by the above method was finished, an equal amount (3 L) of acetone was added to the 3 L culture solution, and extraction was carried out at room temperature for 30 minutes. Acetone was removed from the acetone-containing cultuer solution by an evaporator, and solvent extraction with ethyl acetate was carried out by a separating funnel. The solvent extract was dehydrated by sodium sulfate, and then, evaporated by an evaporator to dryness under reduced poressure to obtain 470 mg of the extract. Subsequently, the extract was adsorbed on a silica gel column, washed with toluene, and active fractions were eluted by toluene/ethyl acetate (8:2). The eluate was concentrated by an evaporator under reduced pressure to obtain 42 mg. The crude matters were subjected to high speed liquid chromatography ("Capsel-Pak C18", Shiseido, solvent: water:acetonitrile = 72:28), and a pure active substance was obtained by isochromatic elution. […] Ultraviolet absorption spectra end 266 nm (water: acetonitrile = 60 : 40) Molecular weight: 368 Thin layer chromatography: Absorbent; HPTLC Kieselgel 60 F 254 (MERK) Developing solvent: hexane : ethyl acetate = 6 : 4 R f value; 0.233 High speed liquid chromatogaphy: Used apparatus; UV detector : Waters 996 (Waters) Pump: HITACHI L―6200 (Hitachi Ltd.) Column: Reversed phase high speed liquid chromatography column for analysis (CAPCELL PAK C18 UG120 5 µ m 4.6 mm ⌀ × 250 mm (Shiseido) Solvent for elution; 30-100 % acetonitrile (linear grudient 20 minutes) Flow rate; 0.8 mL/min Retention time; about 10.5 minutes • Chemical shift values (cf. Fig. 1) in ^1H nuclear magnetic resonance spectra • ^1H―NMR (CDCl3) δ :5.97―6.04 (3H, m), 5.57 (1H, d), 5.02 (1H, d), 4.31 (1H, dd), 4.19 (1H, dd), 3.74 (1H, d), 3.44 (1H, dd), 3.17 (3H, s), 2.96 (1H, d), 2.14 (3H, s) • FAB MASS : 369 (MH^+) • Chemical shift values (cf. Fig. 2) in ^13C nuclear magnetic resonance spectra (600 MH3, CDCL3)

[4] = Body weight in the HCT-116 evaluation in vivo (Example 1); set-up: species or system Balb/c nu/nu mice; conditions: day 21, HCT-116 mice, control 17.5 g
Method: as §3, §4

[5] = tested on: mouse carcinoma of the colon COLON-26; test: Evaluation in vivo using mouse carcinoma of the colon COLON-26 (Example 1); conditions: day 21, CDFI mice
Method: as §1, §2
The anticancer effect was evaluated by the inhibition rate of tumor cell multiplication (IR calculated from the weight of tumor. IR was obtained by the following formula. IR (%) = (1-Tumor Weight of Administration Group/Tumor Weight of Control Group) [formula]

CC(=O)OC1C=CC=C2CC34SSC(CO)(C(=O)N3C21)N(C)C4=O (centres unmarked) [acetylgliotoxin]
weight ([1]; 0.5 mg/kg×5 i.p.(d7-11)): 24.7 g | weight ([1]; 1 mg/kg×5 i.p.(d7-11)): 24.9 g | weight ([1]; 10 mg/kg×2 i.p.(d7, 8)): 24.1 g | weight ([1]; 20 mg/kg×1 i.p.(d7)): 25.2 g | I. R. (%) ([2]; 0.5 mg/kg×5 i.p.(d7-11)): 41% | I. R. (%) ([2]; 1 mg/kg×5 i.p.(d7-11)): 65% | I. R. (%) ([2]; 10 mg/kg×2 i.p.(d7, 8)): 65% | I. R. (%) ([2]; 20 mg/kg×1 i.p. (d7)): 28% | duration of anticancer effects ([2]; Test Example (B), 1 mg/kg × 5 and 10 mg/kg × 2): continued up to day 42 | Solubility ([3]; in chloroform and dimethyl sulfoxide): Easily soluble | Solubility ([3]; in ethyl acetate, acetonitrile, toluene, methanol and acetone): soluble | Solubility ([3]; in water): slightly soluble | weight ([4]; 0.5 mg/kg×5 i.p.(d7-11)): 17.1 g | weight ([4]; 1 mg/kg×5 i.p.(d7-11)): 17.8 g | weight ([4]; 10 mg/kg×2 i.p.(d7, 8)): 15.8 g | weight ([4]; 20 mg/kg×1 i.p. (d7)): 15.9 g | I. R. (%) ([5]; 0.5 mg/kg×5 i.p.(d7-11)): 28% | I. R. (%) ([5]; 1 mg/kg×5 i.p.(d7-11)): 19% | I. R. (%) ([5]; 10 mg/kg×2 i.p.(d7, 8)): 38% | I. R. (%) ([5]; 20 mg/kg×1 i.p.(d7)): 34%
